{"source": "patent US8802597B2", "about": "“Herbicidal pyrimidines” (E I du Pont de Nemours and Company, priority 2003, dated 2014)", "format_in_all_cases": "in vivo", "key": {"[1]": {"test_system": "redroot pigweed (AMARE, Amaranthus retroflexus L.)", "assay": "Test H mixtures of compound 1 with diflufenzopyr", "conditions": "foliage spray", "source_text": "(§1) This test evaluated the effect of mixtures of compound 1 with diflufenzopyr on several plant species. Seeds of test plants consisting of large crabgrass (DIGSA, Digitaria sanguinalis (L.) Scop.), lambsquarters (CHEAL, Chenopodium album L.), redroot pigweed (AMARE, Amaranthus retroflexus L.), cocklebur (XANST, Xanthium strumarium L.), barnyardgrass (ECHCG; Echinochloa crus-galli (L.) Beauv.), corn (ZEAMD, Zea mays L. cv. ‘Pioneer 33G26’), scarlet (red) morningglory (IPOCO, Ipomoea coccinea L.), giant foxtail (SETFA, Setaria faberi Herrm.) and velvetleaf (ABUTH, Abutilon theophrasti Medik.) were planted in pots containing Redi-Earth® planting medium (Scotts Company, 14111 Scottslawn Road, Marysville, Ohio 43041) comprising spaghnum peat moss, vermiculite, wetting agent and starter nutrients. Seeds of small-seeded species were planted about 1 cm deep; larger seeds were planted about 2.5 cm deep. Plants were grown in a greenhouse using supplemental lighting to maintain a photoperiod of about 14 hours; daytime and nighttime temperatures were about 25-30° C. and 22-25° C., respectively. Balanced fertilizer was applied through the watering system. The plants were grown for 7 to 11 days so that at time of treatment the plants ranged in height from 2 to 18 cm (1- to 4-leaf stage). Treatments consisted of Compound 1 and diflufenzopyr alone and in combination, suspended or dissolved in an aqueous solvent comprising glycerin and Tween nonionic surfactant and applied as a foliage spray using a volume of 541 L/ha. Each treatment was replicated four times. […] Treated plants and controls were maintained in the greenhouse and watered as needed with care to not wet the foliage for the first 24 hours after treatment. The effects on the plants approximately 3 weeks after treatment were visually compared to untreated controls. Plant response ratings were calculated as the means of the four replicates, based on a scale of 0 to 100 where 0 is no effect and 100 is complete control. Colby's Equation was used to determine the herbicidal effects expected from the mixtures. Colby's Equation (Colby, S. R. “Calculating Synergistic and Antagonistic Responses of Herbicide Combinations,” Weeds, 15(1), pp 20-22 (1967)) calculates the expected additive effect of herbicidal mixtures, and for two active ingredients is of the form: Pa+b=Pa+Pb−(PaPb/100) wherein Pa+b is the percentage effect of the mixture expected from additive contribution of the individual components, • Pa is the observed percentage effect of the first active ingredient at the same use rate as in the mixture, and • Pb is the observed percentage effect of the second active ingredient at the same use rate as in the mixture."}, "[2]": {"test_system": "giant foxtail (SETFA, Setaria faberi Herrm.)", "assay": "Test H mixtures of compound 1 with diflufenzopyr", "conditions": "foliage spray", "source_text": "as §1"}, "[3]": {"test_system": "velvetleaf (ABUTH, Abutilon theophrasti Medik.)", "assay": "Test H mixtures of compound 1 with diflufenzopyr", "conditions": "foliage spray", "source_text": "as §1"}, "[4]": {"test_system": "corn (ZEAMD, Zea mays L. cv. ‘Pioneer 33G26’)", "assay": "Test H mixtures of compound 1 with diflufenzopyr", "conditions": "foliage spray", "source_text": "as §1"}, "[5]": {"test_system": "cocklebur (XANST, Xanthium strumarium L.)", "assay": "Test H mixtures of compound 1 with diflufenzopyr", "conditions": "foliage spray", "source_text": "as §1"}, "[6]": {"test_system": "large crabgrass (DIGSA, Digitaria sanguinalis (L.) Scop.)", "assay": "Test H mixtures of compound 1 with diflufenzopyr", "conditions": "foliage spray", "source_text": "as §1"}, "[7]": {"test_system": "scarlet (red) morningglory (IPOCO, Ipomoea coccinea L.)", "assay": "Test H mixtures of compound 1 with diflufenzopyr", "conditions": "foliage spray", "source_text": "as §1"}, "[8]": {"test_system": "barnyardgrass (ECHCG; Echinochloa crus-galli (L.) Beauv.)", "assay": "Test H mixtures of compound 1 with diflufenzopyr", "conditions": "foliage spray", "source_text": "as §1"}, "[9]": {"test_system": "lambsquarters (CHEAL, Chenopodium album L.)", "assay": "Test H mixtures of compound 1 with diflufenzopyr", "conditions": "foliage spray", "source_text": "as §1"}, "[10]": {"test_system": "Canada thistle (Cirsium arvense)", "assay": "Test L field study, Compound 1 and nicosulfuron", "conditions": "Compound 1 125 g a.i./ha, approximately 56 days after treatment", "source_text": "(§2) This field study included treatments that consisted of Compound 1 and nicosulfuron alone and in combination on Canada thistle (Cirsium arvense) and daisy fleabane (Erigeron spp.). The plants ranged from 20 to 30 cm in height at the time of application during the month of May in the vicinity of Newark, Del. Compound 1 was formulated as a wettable powder containing 25% active ingredient by weight. Nicosulfuron was in the form of Accent® Herbicide, a water-dispersible granule formulation containing 75% active ingredient by weight. The formulations were dispersed in water in the sprayer tank before treatment. The treatments were made using a backpack sprayer calibrated to deliver 24 gallons per acre (224 L per hectare) to a 10 ft×30 ft (3 m×9 m) plot. Each treatment was replicated two times. The effects on the plants approximately 56 days after treatment were visually compared to untreated controls. Plant response ratings were calculated as the means of the two replicates, based on a scale of 0 to 100 where 0 is no effect and 100 is complete control. Colby's Equation was used to determine the herbicidal effects expected from the mixture."}, "[11]": {"test_system": "daisy fleabane (Erigeron spp.)", "assay": "Test L field study, Compound 1 and nicosulfuron", "conditions": "Compound 1 125 g a.i./ha, approximately 56 days after treatment", "source_text": "as §2"}}, "data": [{"compound": "CCOC(=O)c1nc(C2CC2)nc(N)c1Br", "note": "[Compound 1, ethyl 6-amino-5-bromo-2-cyclopropyl-4-pyrimidinecarboxylate]", "values": [{"measurement": "Obsd. observed effect (0 to 100 scale)", "setting": "[1]; Cmpd 1 31 g a.i./ha", "value": 91}, {"measurement": "Obsd. observed effect (0 to 100 scale)", "setting": "[1]; Cmpd 1 62 g a.i./ha", "value": 97}, {"measurement": "Obsd. observed effect (0 to 100 scale)", "setting": "[1]; Cmpd 1 125 g a.i./ha", "value": 100}, {"measurement": "Obsd. observed effect (0 to 100 scale)", "setting": "[2]; Cmpd 1 31 g a.i./ha", "value": 2}, {"measurement": "Obsd. observed effect (0 to 100 scale)", "setting": "[2]; Cmpd 1 62 g a.i./ha", "value": 4}, {"measurement": "Obsd. observed effect (0 to 100 scale)", "setting": "[2]; Cmpd 1 125 g a.i./ha", "value": 65}, {"measurement": "Obsd. observed effect (0 to 100 scale)", "setting": "[3]; Cmpd 1 31 g a.i./ha", "value": 14}, {"measurement": "Obsd. observed effect (0 to 100 scale)", "setting": "[3]; Cmpd 1 62 g a.i./ha", "value": 26}, {"measurement": "Obsd. observed effect (0 to 100 scale)", "setting": "[3]; Cmpd 1 125 g a.i./ha", "value": 93}, {"measurement": "Obsd. observed effect (0 to 100 scale)", "setting": "[4]; Cmpd 1 31 g a.i./ha", "value": 2}, {"measurement": "Obsd. observed effect (0 to 100 scale)", "setting": "[4]; Cmpd 1 62 g a.i./ha", "value": 5}, {"measurement": "Obsd. observed effect (0 to 100 scale)", "setting": "[4]; Cmpd 1 125 g a.i./ha", "value": 22}, {"measurement": "Obsd. observed effect (0 to 100 scale)", "setting": "[5]; Cmpd 1 31 g a.i./ha", "value": 87}, {"measurement": "Obsd. observed effect (0 to 100 scale)", "setting": "[5]; Cmpd 1 62 g a.i./ha", "value": 98}, {"measurement": "Obsd. observed effect (0 to 100 scale)", "setting": "[5]; Cmpd 1 125 g a.i./ha", "value": 97}, {"measurement": "Obsd. observed effect (0 to 100 scale)", "setting": "[6]; Cmpd 1 31 g a.i./ha", "value": 7}, {"measurement": "Obsd. observed effect (0 to 100 scale)", "setting": "[6]; Cmpd 1 62 g a.i./ha", "value": 37}, {"measurement": "Obsd. observed effect (0 to 100 scale)", "setting": "[6]; Cmpd 1 125 g a.i./ha", "value": 81}, {"measurement": "Obsd. observed effect (0 to 100 scale)", "setting": "[7]; Cmpd 1 31 g a.i./ha", "value": 92}, {"measurement": "Obsd. observed effect (0 to 100 scale)", "setting": "[7]; Cmpd 1 62 g a.i./ha", "value": 97}, {"measurement": "Obsd. observed effect (0 to 100 scale)", "setting": "[7]; Cmpd 1 125 g a.i./ha", "value": 100}, {"measurement": "Obsd. observed effect (0 to 100 scale)", "setting": "[8]; Cmpd 1 31 g a.i./ha", "value": 25}, {"measurement": "Obsd. observed effect (0 to 100 scale)", "setting": "[8]; Cmpd 1 62 g a.i./ha", "value": 42}, {"measurement": "Obsd. observed effect (0 to 100 scale)", "setting": "[8]; Cmpd 1 125 g a.i./ha", "value": 90}, {"measurement": "Obsd. observed effect (0 to 100 scale)", "setting": "[9]; Cmpd 1 31 g a.i./ha", "value": 98}, {"measurement": "Obsd. observed effect (0 to 100 scale)", "setting": "[9]; Cmpd 1 62 g a.i./ha", "value": 100}, {"measurement": "Obsd. observed effect (0 to 100 scale)", "setting": "[9]; Cmpd 1 125 g a.i./ha", "value": 100}, {"measurement": "Obsd. observed effect (0 to 100 scale)", "setting": "[10]", "value": 73}, {"measurement": "Obsd. observed effect (0 to 100 scale)", "setting": "[11]", "value": 53}]}]}
